From patent publication US10941132B2, “Pyrazole derivatives” (HUA MEDICINE (SHANGHAI) Ltd., priority 2016, dated 2021)
pIC50: −log10 of the molar value. Where two headings read alike, the source gives them in different places.

Target: T1, recombinant rat mGluR5 (Rattus norvegicus, UniProt P31424)
T1 construct: expressed in transfected cells
Experiment: Functional calcium flux assay (FLIPR), antagonist evaluation against glutamate-evoked [Ca2+]i increase
Assay type: cell-based
Conditions: HEK293 cells stably expressing recombinant rat mGluR5, 15 min incubation of test compound, then submaximal glutamate
Experimental: Functional Calcium Clux Assay Methodology
For functional assays, HEK293 cells stably expressing recombinant rat mGluR5 were seeded in 384-well plates and dye loaded using Fluo-8. Cells were then washed to remove the un-incorporated dye. Antagonist evaluation was performed following a 15 min incubation of the test compound followed by the addition of submaximal concentration of glutamate. Intracellular calcium ([Ca^2+]i) measurements were performed using a fluorometric imaging plate reader (FLIPR, Molecular Devices). The glutamate-evoked increase in [Ca^2′]i in the presence of the test compounds was compared to the response to glutamate alone (the positive control). Antagonist inhibition curves were fitted with a 4-parameter logistic equation giving IC50 values, and Hill coefficients using an iterative nonlinear curve fitting algorithm.
The tables below provide IC50 data in this assay. In the activity column, A=IC50>1,000 and ≤5,000 nM; B=IC50>500 and ≤1,000 nM and C=IC50≤500 nM.

[1] = Table 1, read-out: IC50 value (FLIPR assay)
[2] = Table 2, read-out: IC50 (FLIPR assay)

T1 sequence (P31424 21-1203): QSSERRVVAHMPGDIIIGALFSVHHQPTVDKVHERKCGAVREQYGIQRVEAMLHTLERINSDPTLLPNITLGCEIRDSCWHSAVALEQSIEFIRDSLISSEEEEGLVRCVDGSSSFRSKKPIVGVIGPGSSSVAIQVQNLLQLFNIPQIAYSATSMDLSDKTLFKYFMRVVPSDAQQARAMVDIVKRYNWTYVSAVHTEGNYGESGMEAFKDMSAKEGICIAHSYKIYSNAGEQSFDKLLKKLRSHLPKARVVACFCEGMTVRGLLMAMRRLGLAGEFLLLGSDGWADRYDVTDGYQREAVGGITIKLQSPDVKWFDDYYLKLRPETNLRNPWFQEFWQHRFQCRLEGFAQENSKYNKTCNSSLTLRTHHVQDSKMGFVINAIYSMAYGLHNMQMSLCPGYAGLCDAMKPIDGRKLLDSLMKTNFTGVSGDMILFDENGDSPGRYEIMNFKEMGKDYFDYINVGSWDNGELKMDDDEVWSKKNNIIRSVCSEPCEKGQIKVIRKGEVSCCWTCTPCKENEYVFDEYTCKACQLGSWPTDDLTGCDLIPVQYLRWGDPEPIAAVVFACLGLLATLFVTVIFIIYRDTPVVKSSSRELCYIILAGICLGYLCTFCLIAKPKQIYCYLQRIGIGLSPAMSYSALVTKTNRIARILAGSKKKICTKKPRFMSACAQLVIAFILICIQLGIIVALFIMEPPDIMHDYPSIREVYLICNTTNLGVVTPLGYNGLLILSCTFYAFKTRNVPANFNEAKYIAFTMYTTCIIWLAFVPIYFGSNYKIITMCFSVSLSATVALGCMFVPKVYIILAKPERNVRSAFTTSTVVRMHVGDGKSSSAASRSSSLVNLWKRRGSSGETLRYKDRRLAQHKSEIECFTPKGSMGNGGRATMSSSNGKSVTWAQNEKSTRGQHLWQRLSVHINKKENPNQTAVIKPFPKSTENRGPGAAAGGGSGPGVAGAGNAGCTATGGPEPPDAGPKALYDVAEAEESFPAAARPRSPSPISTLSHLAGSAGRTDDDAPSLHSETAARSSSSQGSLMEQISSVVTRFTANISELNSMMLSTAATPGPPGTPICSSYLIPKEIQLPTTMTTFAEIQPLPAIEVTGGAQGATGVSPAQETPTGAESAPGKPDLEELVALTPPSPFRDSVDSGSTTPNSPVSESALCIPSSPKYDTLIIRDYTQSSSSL

pIC50 [1] | pIC50 [2] | SMILES
5.30 to 6.00 |  | Cc1c(C#Cc2ccccn2)c(N(C)C)nn1-c1ccc(OC(F)(F)F)cc1 [Compound 16]
≥ 6.30 |  | COc1nn(-c2ccc(OC(F)(F)F)cc2)c(C)c1C#Cc1ccccn1 [Compound 7, 2-((3-methoxy-5-methyl-1-(4-(trifluoromethoxy)phenyl)-1H-pyrazol-4-yl)ethynyl)pyridine]
 | ≥ 6.30 | N#Cc1cc(F)cc(-n2ccc(C#Cc3ncccn3)n2)c1 [Compound 109, 3-fluoro-5-(3-(pyrimidin-2-ylethynyl)-1H-pyrazol-1-yl)benzonitrile]
≥ 6.30 |  | Cc1nn(-c2ccc(F)cn2)cc1C#Cc1ccccn1 [Compound 63, 5-fluoro-2-(3-methyl-4-(pyridin-2-ylethynyl)-1H-pyrazol-1-yl)]
≥ 6.30 |  | FC(F)(F)Oc1ccc(-n2ncc(C#Cc3ncccn3)c2Cl)cc1 [Compound 22]
5.30 to 6.00 |  | Cc1nn(-c2cc(F)cc(C#N)c2)c(C(F)(F)F)c1C#Cc1ccccn1 [Compound 11, 3-fluoro-5-(3-methyl-4-(pyridin-2-ylethynyl)-5-(trifluoromethyl)-1H-pyrazol-1-yl)benzonitrile]
≥ 6.30 |  | Cc1nn(-c2ccc(F)cc2)c(C)c1C#Cc1ncccn1 [Compound 2, 2-((1-(4-fluorophenyl)-3,5-dimethyl-1H-pyrazol-4-yl)ethynyl) pyrimidine]
≥ 6.30 |  | Cc1nn(-c2ccc(OC(F)(F)F)cc2)c(C)c1C#Cc1ccccn1 [Compound 4, 2-((3,5-dimethyl-1-(4-(trifluoromethoxy)phenyl)-H-pyrazol-4-yl)ethynyl)pyridine]
≥ 6.30 |  | Fc1ccc(-n2cc(C#Cc3ncccn3)cn2)cc1 [Compound 86, 2-((1-(4-fluorophenyl)-H-pyrazol-4-yl)ethynyl)pyrimidine]
 | ≥ 6.30 | Fc1ccc(-n2ccc(C#Cc3ccccn3)n2)cc1 [Compound 112, 2-((1-(4-fluorophenyl)-1H-pyrazol-3-yl)ethynyl)pyridine]
≥ 6.30 |  | FC(F)(F)c1ccc(-n2ncc(C#Cc3ncccn3)c2Cl)cc1 [Compound 36, 2-((5-chloro-1-(4-(trifluoromethyl)phenyl)-1H-pyrazol-4-yl)ethynyl) pyrimidine]
≥ 6.30 |  | COc1c(C#Cc2ccccn2)c(C)nn1-c1ccc(F)cc1 [Compound 9, 2-((1-(4-fluorophenyl)-5-methoxy-3-methyl-1H-pyrazol-4-yl)ethynyl)pyridine]
 | ≥ 6.30 | Cc1cc(C#Cc2ccccn2)nn1-c1ccc(F)cn1 [Compound 73, 5-fluoro-2-(5-methyl-3-(pyridin-2-ylethynyl)-1H-pyrazol-1-yl)]
≥ 6.30 |  | Fc1ccc(-n2ncc(C#Cc3ncccn3)c2Cl)cn1 [Compound 19, 2-((5-chloro-1-(6-fluoropyridin-3-yl)-1H-pyrazol-4-yl)ethynyl)pyrimidine]
≥ 6.30 |  | N#Cc1cc(F)cc(-n2cc(C#Cc3ncccn3)cn2)c1 [Compound 78, 3-fluoro-5-(4-(pyrimidin-2-ylethynyl)-1H-pyrazol-1-yl) benzonitrile]
 | ≥ 6.30 | Cc1cn(-c2cc(F)cc(C#N)c2)nc1C#Cc1ncccn1 [Compound 60, 3-fluoro-5-(4-methyl-3-(pyrimidin-2-ylethynyl)-1H-pyrazol-1-yl) benzonitrile]
≥ 6.30 |  | FC(F)(F)Oc1ccc(-n2cc(C#Cc3ncccn3)cn2)cc1 [Compound 93]
 | ≥ 6.30 | Cc1cc(C#Cc2ncccn2)nn1-c1cc(F)cc(C#N)c1 [Compound 101, 3-fluoro-5-(5-methyl-3-(pyrimidin-2-ylethynyl)-H-pyrazol-1-yl) Benzonitrile]
 | ≥ 6.30 | Cc1cc(C#Cc2ccncc2)nn1-c1ccc(F)cc1 [Compound 130, 4-((1-(4-fluorophenyl)-5-methyl-1H-pyrazol-3-yl)ethynyl) pyridine]
 | ≥ 6.30 | Fc1ccc(-n2ccc(C#Cc3ccncc3)n2)cc1 [Compound 118, 4-((1-(4-fluorophenyl)-1H-pyrazol-3-yl)ethynyl)pyridine]

The next lines start with the compound.

SMILES | pIC50 [1] | pIC50 [2]
Fc1ccc(-n2cc(C#Cc3ccncc3)cn2)cc1 [Compound 87] | ≥ 6.30 | 
FC(F)(F)Oc1ccc(-n2cc(C#Cc3cnccn3)cn2)cc1 [Compound 65, 2-((1-(4-(trifluoromethoxy)phenyl)-1H-pyrazol-4-yl)ethyny)pyrazine] | 5.30 to 6.00 | 
Cc1c(C#Cc2ccccn2)c(OC(F)F)nn1-c1cc(F)cc(C#N)c1 [Compound 37, 3-(3-(difluoromethoxy)-5-methyl-4-(pyridin-2-ylethynyl)-1H-pyrazol-1-yl)-5-fluorobenzonitrile] | ≥ 6.30 | 
Cc1cc(C#Cc2ccccc2)nn1-c1cc(F)cc(C#N)c1 [Compound 96, 3-fluoro-5-(5-methyl-3-(phenylethynyl)-1H-pyrazol-1-yl) benzonitrile] |  | ≥ 6.30
FC(F)(F)c1ccc(-n2ncc(C#Cc3ccccn3)c2Cl)cc1 [Compound 35, 2-((5-chloro-1-(4-(trifluoromethyl)phenyl)-1H-pyrazol-4-yl)ethynyl)pyridine] | ≥ 6.30 | 
CS(=O)(=O)c1ccc(-n2cc(C#Cc3ccccn3)c(Cl)n2)cc1 [Compound 58, 2-((3-chloro-1-(4-(methylsulfonyl)phenyl)-1H-pyrazol-4-yl)ethynyl)pyridine] | 5.30 to 6.00 | 
FC(F)(F)Oc1ccc(-n2ccc(C#Cc3cccc(Cl)c3)n2)cc1 [Compound 122, 3-((3-chlorophenyl)ethynyl)-1-(4-(trifluoromethoxy)phenyl)-1H-pyrazole] |  | 5.30 to 6.00
N#Cc1cc(F)cc(-n2ccc(C#Cc3ccnc(Cl)c3)n2)c1 [Compound 108, 3-(3-((2-chloropyridin-4-yl)ethynyl)-1H-pyrazol-1-yl)-5-fluorobenzonitrile] |  | ≥ 6.30
N#Cc1cc(F)cc(-n2cc(C#Cc3cccnc3)cn2)c1 [Compound 76, 3-fluoro-5-(4-(pyridin-3-ylethynyl)-1H-pyrazol-1-yl)benzonitrile] | 5.30 to 6.00 | 
N#Cc1cc(F)cc(-n2cc(C#Cc3cccc(Cl)c3)cn2)c1 [Compound 77, 3-fluoro-5-(4-(3-chloro-phenylethynyl)-1H-pyrazol-1-yl) benzonitrile] | 6.00 to 6.30 | 
FC(F)(F)Oc1ccc(-n2ccc(C#Cc3ccncc3)n2)cc1 [Compound 124, 4-((1-(4-(trifluoromethoxy)phenyl)-1H-pyrazol-3-yl)ethynyl) pyridine] |  | 5.30 to 6.00
Fc1ccc(-n2ccc(C#Cc3cccc(Cl)c3)n2)cc1 [Compound 115, 3-((3-chlorophenyl)ethynyl)-1-(4-fluorophenyl)-1H-pyrazole] |  | 6.00 to 6.30
Fc1ccc(-n2cc(C#Cc3ccccn3)c(Cl)n2)nc1 [Compound 49, 2-(3-chloro-4-(pyridin-2-ylethynyl)-1H-pyrazol-1-yl)-5-fluoropyridine] | ≥ 6.30 | 
Cc1c(C#Cc2ccccn2)cnn1-c1cc(F)cc(C#N)c1 [Compound 50, 3-fluoro-5-(5-methyl-4-(pyridin-2-ylethynyl)-1H-pyrazol-1-yl) benzonitrile] | ≥ 6.30 | 
N#Cc1cc(F)cc(-n2cc(C#Cc3ccccc3)cn2)c1 [Compound 74, 3-fluoro-5-(4-(phenylethynyl)-H-pyrazol-1-yl)benzonitrile] | 5.30 to 6.00 | 
FC(F)(F)Oc1ccc(-n2ccc(C#Cc3cccnc3)n2)cc1 [Compound 121, 3-((1-(4-(trifluoromethoxy)phenyl)-1H-pyrazol-3-yl)ethynyl) pyridine] |  | 5.30 to 6.00
Fc1ccc(-n2cc(C#Cc3ccccn3)cn2)nc1 [Compound 27, 5-fluoro-2-(4-(pyridin-2-ylethynyl)-1H-pyrazol-1-yl)pyridine] | ≥ 6.30 | 
N#Cc1cc(F)cc(-n2cc(C#Cc3ccncc3)cn2)c1 [Compound 79, 3-fluoro-5-(4-(pyridin-4-ylethynyl)-1H-pyrazol-1-yl)benzonitrile] | ≥ 6.30 | 
N#Cc1cc(F)cc(-n2cc(C#Cc3ccccn3)c(OCCO)n2)c1 [Compound 48, 3-fluoro-5-(3-(2-hydroxyethoxy)-4-(pyridin-2-ylethynyl)-1H-pyrazol-1-yl)benzonitrile] | ≥ 6.30 | 
Fc1cncc(-n2cc(C#Cc3ccccn3)cn2)c1 [Compound 33] | ≥ 6.30 | 
N#Cc1cc(F)cc(-n2cc(C#Cc3ccccn3)cn2)c1 [Compound 75, 3-fluoro-5-(4-(pyridin-2-ylethynyl)-1H-pyrazol-1-yl)benzonitrile] | ≥ 6.30 | 
Cc1cn(-c2cc(F)cc(C#N)c2)nc1C#Cc1ccccn1 [Compound 59, 3-fluoro-5-(4-methyl-3-(pyridin-2-ylethynyl)-1H-pyrazol-1-yl) benzonitrile] |  | ≥ 6.30
Cc1cc(C#Cc2cccnc2)nn1-c1cc(F)cc(C#N)c1 [Compound 98, 3-fluoro-5-(5-methyl-3-(pyridin-3-ylethynyl)-1H-pyrazol-1-yl) benzonitrile] |  | ≥ 6.30
FC(F)(F)Oc1ccc(-n2ccc(C#Cc3ccccc3)n2)cc1 [Compound 120] |  | 5.30 to 6.00
Fc1cncc(-n2ccc(C#Cc3ccccn3)n2)c1 [Compound 70, 3-fluoro-5-(3-(pyridin-2-ylethnyl)-1H-pyrazol-1-yl)pyridine] |  | ≥ 6.30
N#Cc1cc(F)cc(-n2ccc(C#Cc3ccccc3)n2)c1 [Compound 104] |  | 5.30 to 6.00
Fc1ccc(-n2cc(C#Cc3ccccn3)c(OC(F)F)n2)nc1 [Compound 68, 2-(3-(difluoromethoxy)-4-(pyridin-2-ylethynyl)-1H-pyrazol-1-yl)-5-fluoropyridine] | ≥ 6.30 | 
N#Cc1cc(F)cc(-n2ccc(C#Cc3ccncc3)n2)c1 [Compound 110, 3-fluoro-5-(3-(pyridin-4-ylethynyl)-H-pyrazol-1-yl)benzonitrile] |  | ≥ 6.30
